Data: the kinase profiling compilation of Christmann-Franck et al. (2016)

Tests used:
Assay in all cases: radiometric filter-binding kinase assay, Kinase HotSpot
Conditions in all cases: compound 0.5 µM; ATP 10 µM
[1] = tested on: FLT4 (human), P35916 [Q890H]
[2] = tested on: MAP2K6 (human), P52564 [S207E/T211E]
[3] = tested on: MKNK1 (human), Q9BUB5 [T385D; 165-205 del]
[4] = tested on: PRKCQ (human), Q04759 [P330L]
Chain of PRKCQ (human), Q04759 [P330L] (Q04759 whole entry P330L, looked up): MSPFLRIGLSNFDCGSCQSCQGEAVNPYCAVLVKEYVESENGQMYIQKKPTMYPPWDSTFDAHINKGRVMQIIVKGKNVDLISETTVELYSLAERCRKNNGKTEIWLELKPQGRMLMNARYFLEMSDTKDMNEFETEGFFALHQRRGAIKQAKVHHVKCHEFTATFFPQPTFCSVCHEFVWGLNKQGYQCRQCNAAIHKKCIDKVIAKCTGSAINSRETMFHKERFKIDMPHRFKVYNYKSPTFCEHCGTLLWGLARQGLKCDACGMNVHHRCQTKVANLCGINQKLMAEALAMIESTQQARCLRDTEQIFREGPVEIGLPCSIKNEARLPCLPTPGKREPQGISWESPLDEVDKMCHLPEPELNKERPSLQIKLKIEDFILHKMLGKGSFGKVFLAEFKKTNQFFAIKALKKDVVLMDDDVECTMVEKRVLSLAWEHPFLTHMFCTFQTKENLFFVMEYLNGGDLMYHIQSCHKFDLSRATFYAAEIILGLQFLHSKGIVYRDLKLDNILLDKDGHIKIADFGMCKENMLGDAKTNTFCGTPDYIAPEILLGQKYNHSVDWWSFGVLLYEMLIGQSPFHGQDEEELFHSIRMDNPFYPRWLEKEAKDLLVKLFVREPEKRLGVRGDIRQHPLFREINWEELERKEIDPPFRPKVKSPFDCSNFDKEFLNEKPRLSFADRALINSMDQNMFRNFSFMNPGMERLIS

Chain of MKNK1 (human), Q9BUB5 [T385D; 165-205 del] (Q9BUB5 whole entry, looked up, stated change not applied): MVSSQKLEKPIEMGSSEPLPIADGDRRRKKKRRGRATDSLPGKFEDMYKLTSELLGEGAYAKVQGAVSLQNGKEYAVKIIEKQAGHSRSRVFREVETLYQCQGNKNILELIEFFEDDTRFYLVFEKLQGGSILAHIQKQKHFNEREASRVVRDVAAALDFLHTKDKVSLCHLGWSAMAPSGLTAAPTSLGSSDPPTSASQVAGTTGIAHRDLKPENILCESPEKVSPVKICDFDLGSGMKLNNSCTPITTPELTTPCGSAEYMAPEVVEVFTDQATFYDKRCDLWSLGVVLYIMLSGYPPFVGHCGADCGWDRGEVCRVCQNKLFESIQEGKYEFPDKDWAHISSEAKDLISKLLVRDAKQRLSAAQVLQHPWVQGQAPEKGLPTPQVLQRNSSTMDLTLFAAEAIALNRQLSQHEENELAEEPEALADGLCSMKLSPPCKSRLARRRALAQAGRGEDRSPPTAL
Chain of FLT4 (human), P35916 [Q890H] (P35916 whole entry, looked up, stated change not applied): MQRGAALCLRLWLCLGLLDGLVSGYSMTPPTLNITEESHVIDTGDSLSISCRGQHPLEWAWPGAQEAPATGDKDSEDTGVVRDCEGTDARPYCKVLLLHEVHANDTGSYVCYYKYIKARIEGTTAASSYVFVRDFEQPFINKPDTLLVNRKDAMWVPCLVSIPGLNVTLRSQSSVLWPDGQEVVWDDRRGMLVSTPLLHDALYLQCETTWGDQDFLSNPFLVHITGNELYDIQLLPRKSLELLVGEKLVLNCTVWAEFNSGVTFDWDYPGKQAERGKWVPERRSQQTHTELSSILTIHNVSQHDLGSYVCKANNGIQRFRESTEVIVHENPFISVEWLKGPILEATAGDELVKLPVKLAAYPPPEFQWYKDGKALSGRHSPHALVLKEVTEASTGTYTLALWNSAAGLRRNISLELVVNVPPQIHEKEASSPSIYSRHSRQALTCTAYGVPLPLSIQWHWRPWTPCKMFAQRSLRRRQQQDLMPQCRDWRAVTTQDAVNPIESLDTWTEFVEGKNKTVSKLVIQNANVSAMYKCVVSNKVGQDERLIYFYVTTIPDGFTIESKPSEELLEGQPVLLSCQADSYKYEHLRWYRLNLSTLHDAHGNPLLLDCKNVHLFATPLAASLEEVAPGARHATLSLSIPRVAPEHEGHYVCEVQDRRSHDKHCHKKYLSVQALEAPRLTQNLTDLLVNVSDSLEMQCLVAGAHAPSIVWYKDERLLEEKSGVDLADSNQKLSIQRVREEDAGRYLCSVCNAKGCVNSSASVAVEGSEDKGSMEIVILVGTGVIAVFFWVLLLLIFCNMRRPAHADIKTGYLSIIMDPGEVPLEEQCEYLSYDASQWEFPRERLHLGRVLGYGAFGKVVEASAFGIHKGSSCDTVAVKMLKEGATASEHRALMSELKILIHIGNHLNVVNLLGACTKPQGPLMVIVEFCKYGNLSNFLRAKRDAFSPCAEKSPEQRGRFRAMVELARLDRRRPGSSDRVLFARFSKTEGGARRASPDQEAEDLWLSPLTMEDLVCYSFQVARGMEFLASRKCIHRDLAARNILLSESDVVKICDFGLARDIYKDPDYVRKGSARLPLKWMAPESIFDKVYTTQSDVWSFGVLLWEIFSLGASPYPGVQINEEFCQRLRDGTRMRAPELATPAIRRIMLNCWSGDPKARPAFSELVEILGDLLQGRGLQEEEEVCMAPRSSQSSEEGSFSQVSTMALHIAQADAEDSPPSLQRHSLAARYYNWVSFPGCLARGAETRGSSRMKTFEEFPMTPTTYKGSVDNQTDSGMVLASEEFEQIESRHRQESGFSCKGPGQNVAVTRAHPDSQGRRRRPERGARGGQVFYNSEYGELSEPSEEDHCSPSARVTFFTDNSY
Chain of MAP2K6 (human), P52564 [S207E/T211E] (P52564 whole entry S207E/T211E, looked up): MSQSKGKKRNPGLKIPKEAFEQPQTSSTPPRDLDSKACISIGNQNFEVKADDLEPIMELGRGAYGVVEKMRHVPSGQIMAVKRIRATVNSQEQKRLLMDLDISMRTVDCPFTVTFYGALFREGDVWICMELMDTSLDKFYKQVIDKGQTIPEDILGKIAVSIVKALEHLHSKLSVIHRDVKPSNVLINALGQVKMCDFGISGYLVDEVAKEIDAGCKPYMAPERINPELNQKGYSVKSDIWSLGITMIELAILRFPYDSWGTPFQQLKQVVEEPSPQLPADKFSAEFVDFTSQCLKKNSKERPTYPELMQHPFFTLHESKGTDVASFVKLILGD

SMILES	residual activity [1] [%]	residual activity [2] [%]	residual activity [3] [%]	residual activity [4] [%]
Oc1ccc(Nc2nc(-c3ccc(Cl)cc3)cs2)cc1	101	94	98.9	123
N#CCCc1ccc2c(c1)-c1[nH]c3ccc([N+](=O)[O-])cc3c1CC(=O)N2	66.5	97.2	66.7	111
COc1ccc2c(c[n+](C)c3c4cc5c(cc4ccc23)OCO5)c1OC	97.6	95	102	99.9
O=c1cc(N2CCOCC2)oc2c(-c3ccccc3)cccc12	96.4	97.5	103	112
COc1ccc(OC)c2c(=S)c3ccccc3[nH]c12	98.1	89.9	115	98.9
CO[C@H]1CC2CC[C@@H](C)[C@@](O)(O2)C(=O)C(=O)N2CCCC[C@H]2C(=O)OC([C@H](C)C[C@@H]2CC[C@@H](O)[C@H](OC)C2)CC(=O)[C@H](C)/C=C(\C)[C@@H](O)[C@@H](OC)C(=O)[C@H](C)C[C@H](C)/C=C/C=C/C=C/1C (stereo not given in full)	116	107	101	126
O=C(O)c1ccc2c3c1cccc3c(=O)n1c3ccccc3nc21	82.5	103	60.3	117
Cn1cnc2cc3c(Nc4cccc(Br)c4)ncnc3cc21	89.7	104	39.9	96.9
O=C(CCCc1ccc(-c2ccccc2F)cc1)Nc1ccc(O)cc1	99.3	97.5	111	107
Oc1ccc(-c2nc(-c3ccc(F)cc3)c(-c3ccncc3)[nH]2)cc1	101	109	102	115
COc1cccc(-c2cc(=O)c3ccccc3o2)c1N	90.8	92.4	95.4	103
N#C/C(=C1/Nc2ccccc2S1)c1ccnc(NCCc2cccnc2)n1	86.1	92.5	90.2	104
Cn1cc(/C=C2\C(=O)Nc3ccc(S(N)(=O)=O)cc32)c2ccccc21	65.1	116	74.1	103
Cc1nc2cc3nc(-c4cccs4)cnc3cc2n1C	86.2	104	92.7	100
Nc1ncnc2c1c(-c1ccc(Oc3ccccc3)cc1)cn2C1CCCC1	50.8	99.3	109	131
CC[n+]1c(/C=C/N(C)c2ccccc2)n(-c2ccccc2)c2ccc(-c3nc4ccccc4s3)cc21	90.9	103	102	94.6
CC(=O)c1ccc(N2CCOCC2)cc1O	112	94.2	102	99.5
CC(C)[C@H](CO)Nc1nc(Nc2cccc(Cl)c2)c2ncn(C(C)C)c2n1	110	105	79.8	127
CCn1cnc2c(Nc3cccc(Cl)c3)nc(N[C@@H]3CCCC[C@@H]3N)nc21	105	100	101	93.3
O=S(=O)(NCCNC/C=C/c1ccc(Br)cc1)c1cccc2cnccc12	108	81.3	93.4	104
NC(=O)c1ccc(N(C(N)=O)c2c(F)cccc2F)nc1-c1ccc(F)cc1F	97.5	96.5	91.4	85.1
O=C1Nc2ccccc2/C1=C1\Nc2ccccc2\C1=N/O	53	83.5	99.6	99.1
CC[C@@H](CO)Nc1nc(NCc2ccccc2)c2ncn(C(C)C)c2n1	94	98.2	96.4	90
O=C1Nc2ccccc2/C1=C1/Nc2ccccc2/C1=N\OCCC(O)CO (stereo not given)	22.3	79.7	95.3	92.9
COc1cc2ncnc(Nc3ccc(F)c(Cl)c3)c2cc1OCCCN1CCOCC1	92.2	90.1	41.9	85.9
O=C1NC(=O)/C(=C/c2ccc3c(c2)OC(F)(F)O3)S1	107	92.3	93.1	101
O=C1NC(=O)c2cc(Nc3ccc(F)cc3)c(Nc3ccc(F)cc3)cc21	102	110	103	98.7

Results, then the molecule that gave them:

residual activity [1] [%]	residual activity [2] [%]	residual activity [3] [%]	residual activity [4] [%]	SMILES
79.2	96.5	112	116	CCOC(=O)c1c(C)[nH]c(/C=C2\C(=O)Nc3ccccc32)c1C
16.1	96.2	49.3	100	COc1cc2c(Nc3ccc(Br)cc3F)ncnc2cc1OCC1CCN(C)CC1
104	107	99.5	112	O=c1cc(-c2cccc3c2Sc2ccccc2S3)oc(N2CCOCC2)c1
94.1	95.9	87.1	98.7	COc1ccc(-c2cnc3c(-c4ccsc4)cnn3c2)cc1
93.7	87.2	95.2	72	CC(=O)O/N=C1\C(=C2\C(=O)Nc3cc(Br)ccc32)Nc2ccccc21
64.4	93.6	64.7	91.2	c1ccc(-c2cnc(Nc3ccc(OCCN4CCCC4)cc3)s2)cc1
97	94.5	55.2	110	CNc1cc2c(Nc3cccc(Br)c3)ncnc2cn1
104	86.6	102	105	Oc1cccc(-c2nc(N3CCOCC3)c3oc4ncccc4c3n2)c1
114	109	100	12.7	CN(C)C[C@H]1CCn2c(c(C3=C(c4cn(C)c5ccccc45)C(=O)NC3=O)c3ccccc32)C1
78.7	95.3	98.4	114	O=C1Cc2c([nH]c3ccc(Br)cc23)-c2ccccc2N1
43	96.9	75.1	100	CNC(=O)c1cc(Oc2ccc(NC(=O)Nc3ccc(Cl)c(C(F)(F)F)c3)cc2)ccn1
15.8	90.1	87.6	64.5	Nc1cccc(-c2cc3c(Oc4cccc(O)c4)ncnc3[nH]2)c1
92.3	91.1	100	81.7	O=C1NC(=O)C(c2cn(CCCO)c3ncccc23)=C1c1cnccn1
